Data published in patent publication US7192928B1, “T cell antigen receptor peptides” (Northern Sydney & Central Coast Area Health Services, priority 1996, dated 2007).
Where “and” joins values, the source holds several entries; their conditions need not be identical. Identical values can stand only once. Like-named read-outs stand apart in the source and are kept apart here. Marks after values point to notes of the source that are not given here.

Tests used:
[1] = test system: rat T-cell line specific to MTB; experiment: Antigen-stimulated proliferation of MTB-specific T-cell line (3H-thymidine incorporation); assay type: cell-based; conditions: for effect on T-cell proliferation / counts relative to vehicle control: 100 μM
[2] = test system: adjuvant induced arthritis in rats; experiment: Adjuvant-induced arthritis in rats; assay type: in vivo, rat; conditions: for Summary of in vivo adjuvant induced arthritis results: TREATMENT: 7 mg peptide with 1 mg MTB, rats with arthritis/rats in group; for rats showing no symptoms of arthritis / efficacy against MTB-induced arthritis / rats with mild disease / minor symptoms: 7 mg peptide; for rats showing no symptoms of arthritis: duration of the experiment; for effectiveness in adjuvant induced arthritis model, summary statement: summary of Table 4; for efficacy against MTB-induced arthritis: section (ii)
[3] = Solubility of the peptides in stock solutions; assay type: physicochemical; conditions: for appearance of peptide stock solution: stock solutions 1 mg/ml or 1 mM
Procedure: The solubility of the peptides was variable. At the concentration of the stock solutions, 1 mg/ml or 1 mM, most peptide solutions looked clear. […] Therefore, the true concentration of peptides in solution in the culture wells would be less than those nominated in the case of these partially soluble peptides. Core peptide could be dissolved at 2 mg/ml, but was not completely soluble at 5 mg/ml. […] The vehicle for the peptides, except M and N, was 0.1% acetic acid which gave 0.01%, i.e., 1.75 mM in the wells. […] In these experiments, effects of peptides could still be determined by comparison with the vehicle control. The 0.05M sodium carbonate buffer, used to dissolve peptides M and N, was not as detrimental to line T-cells as acetic acid.

[4] = test system: rat primed lymph node cells (PLNC); conditions: for effect on antigen-stimulated T-cell proliferation: PLNC Experiment 2, FIG. 3, peptides alone and in combination; for inhibition of antigen-stimulated T-cell proliferation, overall statement: PLNCs and T-cell lines, summary over experiments
[5] = T-Cell Line Experiment 2, FIG. 5
[6] = section (iii), 5 rats per group
[7] = respective buffers (0.1% acetic acid; 0.05M sodium carbonate for M and N)
[8] = peptides 7 mg/rat, CS 50 mg/kg, DXM 2 mg/kg
[9] = PLNC Experiment 1, FIG. 2, peptide 100 μg/ml
[10] = section (i), summary of Table 3 experiments

With “H-FLFAEIVSI-OH [Peptide N, F L F A E I V S I]” the “effect on T-cell proliferation” value [1, 5] was “no effects”, the “Summary of in vivo adjuvant induced arthritis results: TREATMENT” value (“Summary … TREATMENT” below) [2] was 0/5* and the “protection” value ([2]; section (iii)) was “protective to a variable extent”. The “rats showing no symptoms of arthritis” value [2, 6] was “All five”, the “effectiveness in adjuvant induced arthritis model, summary statement” value (“effectiveness” for short) [2] was “very effective” and the solubility in words [3, 7] was “soluble in their respective buffers”. The “effect on antigen-stimulated T-cell proliferation” value [4] was “did not reduce proliferation”.

For `C[C@@H]1C[C@H]2[C@@H]3CCC4=CC(=O)C=C[C@]4(C)[C@@]3(F)[C@@H](O)C[C@]2(C)[C@@]1(O)C(=O)CO` [DXM*, dexamethasone, reference compound], the “EFFECT on adjuvant induced arthritis” value [2, 8] was “No effect+”.

For “H-MGLRILLL-OH [Peptide A, M G L R I L L L]”, the “EFFECT on adjuvant induced arthritis” value [2, 8] was “Protective”.

In the case of H-LGILLLKV-OH [I, L G I L L L K V], the “EFFECT on adjuvant induced arthritis” value [2, 8] is reported as “Protective” and the “appearance of peptide stock solution” value [3] is reported as “turbid or had undissolved particles”.

For “H-LRILLLGV-OH [Peptide H, L R I L L L G V]”, the “counts relative to vehicle control” value [1, 5] was 66%, the “EFFECT on adjuvant induced arthritis” value [2, 8] was “Protective” and the “appearance of peptide stock solution” value [3] was “turbid or had undissolved particles”. The “effect on T-cell proliferation” value [4, 9] was “appeared to reduce T-cell proliferation”.

For H-LGILLLGV-OH [C, L G I L L L G V], the “EFFECT on adjuvant induced arthritis” value [2, 8] was “No effect” and the “EFFECT on adjuvant induced arthritis” value [2, 10] was “no effect”.

With “H-SSDVPCDATLT-OH [K, S S D V P C D A T L T]” the “Summary … TREATMENT” value [2] was 5/10, the “efficacy against MTB-induced arthritis” value [2] was “comparable in efficacy” and the “effectiveness” value [2] was “variable response in the delay of disease induction and severity”. For the same compound, the solubility in words [3, 7] was “soluble in their respective buffers”.

For “H-YGRADCGITS-OH [Peptide J, Y G R A D G G I T S]”, the “Summary … TREATMENT” value [2] was 3/10*, the “efficacy against MTB-induced arthritis” value [2] was “comparable in efficacy” and the “effectiveness” value [2] was “very effective”.

With H-LDILLLEV-OH [E, L D I L L L E V] the “EFFECT on adjuvant induced arthritis” value [2, 8] was “No effect” and the “EFFECT on adjuvant induced arthritis” value [2, 10] was “no effect”.

In the case of “H-IIVTDVIATL-OH [Peptide M, I I V T D V I A T L]”, the “effect on T-cell proliferation” value [1, 5] is reported as “no effects”, the “Summary … TREATMENT” value [2] is reported as 2/5 and the “protection” value ([2]; section (iii)) is reported as “protective to a variable extent”. The “rats with mild disease / minor symptoms” value [2, 6] was “Two”, the “rats showing no symptoms of arthritis” value [2, 6] was “One” and the “rats of the group killed” value ([2]; section (iii), 5 rats per group, on days 19 and 21) was 2. For the same compound, the “effectiveness” value [2] was “variable response in the delay of disease induction and severity”, the solubility in words [3] was “soluble in their respective buffers” and the “effect on antigen-stimulated T-cell proliferation” value [4] was “did not reduce proliferation”.

In the case of H-GLRILLLKV-OH [CP, G L R I L L L K V], the “counts (tritiated thymidine incorporation)” value ([1]; T-Cell Line Experiment 1, FIG. 4, 100 μg/ml, vehicle control approximately 30000) is reported as “approximately 18000 cpm”, the “counts relative to the control level” value ([1]; T-Cell Line Experiment 1, FIG. 4, 200 μg/ml) is reported as “about 25%” and the “counts relative to vehicle control” value [1, 5] is reported as “approximately 33%”. For the same compound, the “counts relative to the control” value ([1]; T-Cell Line Experiment 2, FIG. 5, 200 μM) was about 16%, the “animals with no evidence of arthritis” value ([2]; first experiment, three rats per group, after 18 days, suspended in adjuvant, base of tail) was 2/3 and the “EFFECT on adjuvant induced arthritis” value [2, 8] was “Protective”. For the same compound, the “EFFECT on adjuvant induced arthritis” value [2, 10] was “Best results”, the “degree of inhibition of antigen-stimulated T-cell proliferation” value [4] was 50-9096% and the “inhibition at different concentrations in the wells” value ([4]; 20 μl of 1, 2 or 5 mg/ml stock added to the wells (0.1, 0.2, 0.5 mg/ml)) was 0.2 mg/ml CP was more inhibitory than 0.1 mg/ml and 0.5 mg/ml was less effective. For the same compound, the “counts relative to the vehicle control (T-cell proliferation)” value ([4]; PLNC Experiment 1, FIG. 2, peptide 100 μg/ml, MTB 100 μg/ml) was “approximately 10%”, the “effect on antigen-stimulated T-cell proliferation” value [4] was “reduced antigen-stimulated T-cell proliferation, whether freshly dissolved or stored for more than three months at 4 °C” and the “inhibition of antigen-stimulated T-cell proliferation, overall statement” value [4] was “most effective”. For the same compound, the “inhibition of antigen-stimulated T-cell proliferation, overall statement” value ([4]; listed as core peptide) was “effective at inhibiting antigen-stimulated T-cell proliferation” and the “proliferation reduced by” value ([4]; first experiment) was “go”.

With H-ILLLKVAG-OH [B, I L L L K V A G] the “EFFECT on adjuvant induced arthritis” value [2, 8] was “Protective” and the “EFFECT on adjuvant induced arthritis” value [2, 10] was “Best results”.

For “H-IVIVDICIT-OH [Peptide L, I V I V D I C I T]”, the “Summary … TREATMENT” value [2] was 0/5*, the weight loss ([2]; section (iv), FIG. 10, 7 mg peptide L, five rats) was “none of the peptide L treated group lost weight” and the “paw and ankle thickness” value ([2]; section (iv), FIG. 11(a–d), 7 mg peptide L) was “significantly decreased compared to control”. For the same compound, the “effectiveness” value [2] was “very effective”.

In the case of “H-AGFNLLMT-OH [Peptide O, A G F N L L M T]”, the “Summary … TREATMENT” value [2] is reported as 1/10*, the “efficacy against MTB-induced arthritis” value [2] is reported as “most effective at ameliorating the development of MTB-induced arthritis” and the “effectiveness” value [2] is reported as “very effective”. The “appearance of peptide stock solution” value [3] was “turbid or had undissolved particles”.

With “H-LLMTLRLWSS-OH [Peptide P, L L M T L R L W S S]” the “effect on T-cell proliferation” value [1, 5] was “marginal effect”, the “Summary … TREATMENT” value [2] was 0/5 and the “rats that developed minor symptoms” value ([2]; Table 4, of 5 treated rats) was “(4 developed minor symptoms)”. The “protection” value ([2]; section (iii)) was “protective to a variable extent”, the “rats with mild disease / minor symptoms” value [2, 6] was “four” and the “rats showing no symptoms of arthritis” value [2, 6] was “one”. The “effectiveness” value [2] was “variable response in the delay of disease induction and severity”, the “appearance of peptide stock solution” value [3] was “turbid or had undissolved particles” and the “effect on T-cell proliferation” value [4, 9] was “most inhibitory”. The “effect on antigen-stimulated T-cell proliferation” value [4] was “showed activity”.
